Test results reported in PMC5161367, “Discovery of Novel Small Molecule Inhibitors of VEGF Expression in Tumor Cells Using a Cell-Based High Throughput Screening Platform” (PLoS ONE, 2016).
Like-named read-outs stand apart in the source and are kept apart here.

What was measured:
[1] = tested on: membrane bound VEGF (VEGF189 and VEGF206); assay: Western blot of membrane bound VEGF isoforms; type: cell-based, human
Procedure: Cells were treated with test compounds for the indicated times as shown in the Results section. Whole-cell extracts were obtained by lysing cells in M-PER lysis buffer (Pierce, Rockford, IL) containing 150 mM NaCl, 2 mM EDTA and 1x Halt protease inhibitors (Pierce). Samples were resolved on a Tris-glycine Criterion gel (Bio-Rad) and transferred onto a 0.45 μm nitrocellulose membrane. The membranes were then immunoblotted with specific antibodies as shown in the Results section: antibody (C1) specific for VEGF was purchased from Santa Cruz Biotechnologies (used at 1:200 dilution); and antibody specific for human β-actin was purchased from Abcam (Cambridge, MA) (1:10000 dilution). Immunodetection was done using the corresponding secondary antibodies conjugated with infrared dyes or horseradish peroxidase. The expression levels of proteins were quantified with Odyssey (LI-COR) or using enhanced chemiluminescence (Pierce).
The effect of PTC-858 on the levels of the soluble and membrane bound VEGF isoforms was characterized. The levels of the soluble VEGF isoforms (VEGF121 and VEGF165) were assessed from conditioned medium as described above. The effect of PTC-858 on the production of the high molecular weight, membrane bound isoforms (VEGF189 and VEGF206), was determined by Western blot analysis using a VEGF specific antibody. β-actin levels were used as an internal loading control. […]

[2] = Cytotoxicity, CellTiter-Glo, PBMC; type: cell-based; conditions: human, peripheral blood mononuclear cells (PBMC)
Procedure: (§1) The cytotoxicity of compounds was determined in peripheral blood mononuclear cells (PBMCs) and primary human foreskin fibroblasts, both purchased frozen from AllCells, Inc, CA. Cells were incubated with test compound at various concentrations in triplicate for a period of 3 days in 96-well plates. The cytotoxicity or inhibition of cell proliferation was determined using a standard CellTiter-Glo® Luminescent Cell Viability Assay (Promega, Madison, WI) that measures total cellular adenosine triphosphate (ATP) concentration as a function of cell viability. In addition, cytotoxicity assays were also performed in HeLa cells in parallel with VEGF ELISA to ensure that the inhibition of VEGF production in HeLa cells was not due to cytotoxicity.

[3] = Cytotoxicity, CellTiter-Glo, HeLa cells; type: cell-based; conditions: human
Procedure: as §1
(§2) The IC50 values for compounds that inhibited VEGF production were determined next. A seven-point dose-response analysis was performed for each of the 137 compounds. In parallel, a dose-response cytotoxicity assay was performed to determine the CC50 (the concentration resulting in 50% cellular growth inhibition or cytotoxicity) under the same conditions as VEGF ELISA to determine whether hypoxia-induced VEGF inhibition was due to cytotoxicity.

[4] = tested on: HT1080 human tumor xenografts; assay: HT1080 human tumor xenograft growth in athymic nude mice; type: in vivo, mouse
Procedure: Log phase growing tumor cells (5–10 x 10^6 cells/mouse, depending on the cell line) were implanted subcutaneously in athymic nude mice. When the average tumor size reached the indicated size, mice were randomly divided into groups and administered vehicle (5% DMSO/ 95% PEG-300) or test compounds by oral gavage. Tumor volumes were measured twice per week using digital calipers and body weights once per week. Tumor volume was determined according to the formula: L x (W)^2/2, where L is the longest dimension and W is the shortest dimension.
These pharmaceutical properties enabled the testing of this compound in a human xenograft pharmacodynamic model in mice to measure modulation of intratumor VEGF levels. Established human HT1080 fibrosarcoma tumors grown as a xenograft in nude mice were treated with PTC-858 orally at a dose of 200 mg/kg, twice per day for 7 days. […] In addition, tumor growth was reduced by 25% after only 7 days of treatment.
Tumors in vehicle-treated mice reached an average volume of 1 cm^3 after 15 days, while tumors in mice treated with 10 mg/kg PTC-510 reached the same volume in about 40 days, a tumor growth delay of 25 days.

VEGF = VEGF ELISA, hypoxia-induced VEGF production in HeLa cells; type: cell-based; conditions: Homo sapiens; for IC50: HeLa cells under hypoxia, read-out: IC50, inhibition of hypoxia induced VEGF production (VEGF ELISA)
Procedure: Cells were treated with vehicle control (0.5% DMSO) or compounds at the indicated concentration for 48 hours, and specific proteins in conditioned medium were quantified using commercially available ELISA kits (R&D Systems) according to the manufacturer’s recommendations. VEGF was quantified in HeLa cells under hypoxia (1% oxygen); Tumor necrosis factor alpha (TNFα) was quantified in CEM cells stimulated with 1 μg/mL interleukin-1 beta (Sigma); erythropoietin (EPO) was quantified in HepB3 cells under hypoxic conditions (1% oxygen); and granulocyte colony-stimulating factor (G-CSF), basic fibroblast growth factor (FGF-2) and insulin-like growth factor 1 (IGF-1) were quantified without induction in HT1080 cells, HeLa cells and HepG2 cells, respectively.
A sigmoid dose-response with variable slope regression curve was generated for each compound. The maximal and minimal inhibition values were set at 100% and 0%, respectively. IC50 and CC50 values were automatically calculated after curve fitting by the software.
Hits from the HTS were then evaluated for their ability to modulate hypoxia-inducible endogenous VEGF expression. HeLa cells were cultured under hypoxic conditions (1% O2, 5% CO2, balanced with nitrogen) in the presence or absence of compound at a concentration of 7.5 μM in duplicate. VEGF protein levels in the conditioned medium were quantified by ELISA. […] Compounds that reduced endogenous hypoxia-induced VEGF by 50% or more at a single concentration of 7.5 μM were further evaluated.
as §2

Brc1ccc2[nH]c3c(c2c1)CCCC3n1cccc1 (stereo not drawn) [PTC-858, 6-bromo-1-(1H-pyrrol-1-yl)-2,3,4,9-tetrahydro-1H-carbazole]
effect on level of membrane bound VEGF (Western blot) ([1]; HeLa cells (text b57), β-actin loading control): reduced the level of membrane bound VEGF in HeLa cells in a dose-dependent fashion
CC50 at 72 hours ([2]; 72 hours, CellTiter-Glo): > 30000 nM
CC50 at 72 hours ([3]; 72 hours, CellTiter-Glo): 1700 nM
selectivity ratio ([3]; CC50 vs VEGF ELISA IC50, read-out: selective index (CC50/IC50)): > 200
tumor growth reduced ([4]; 200 mg/kg orally, twice per day, after 7 days of treatment): 25%
EC50 (VEGF; HeLa cells under hypoxia (1% oxygen), 48 hours, read-out: ELISA EC50, VEGF): 13 ± 20 nM
IC50 (VEGF): 7.5 nM

COc1ccc(C2c3[nH]c4ccc(Br)cc4c3CC3C(=O)N(C4CCCCC4)C(=S)N32)cc1.O=C(O)C(F)(F)F (stereo not drawn) [PTC-510, 9-bromo-2-cyclohexyl-5-(4-methoxyphenyl)-3-thioxo-2,3,5,6,11,11a-hexahydro-1H-imidazo[1’,5’:1,6]pyrido[3,4-b]indol-1-one trifluoroacetate]
effect on production of membrane bound VEGF189/206 (Western blot) ([1]; Fig 4c): inhibits the production of the membrane bound VEGF189/206
CC50 at 3 days ([2]; read-out: PBMC cytoxtoxicity CC50): > 30000 nM
CC50 at 48 hr ([3]; 48 hr): 200 nM
time for tumors to reach an average volume of 1 cm^3 ([4]; 10 mg/kg, oral, vehicle 15 days): about 40 days
tumor growth delay ([4]; 10 mg/kg, oral, vs vehicle): 25 days
mice with tumors that remained too small to measure (<50 mm^3) ([4]; 50 mg/kg group, 3/7 mice, on study more than 90 days): 43%
time for tumors to reach 1 cm^3 ([4]; 50 mg/kg, oral, dosing stopped at 50 days): > 50 days
effect of prolonged treatment on tumor growth ([4]; oral, 10 and 50 mg/kg): reduced tumor growth significantly in a dose-dependent fashion
IC50 (VEGF): ~6 nM
EC50 (VEGF; HeLa cells, read-out: HeLa VEGF ELISA/SAR EC50): 6 nM
EC90 (VEGF; HeLa cells, read-out: HeLa VEGF ELISA/SAR EC90): 50 nM
